Measurements reported in patent US5795890A, “Sulfonamide derivatives” (ONO Pharmaceutical Co., Ltd., priority 1995, dated 1998).
Where a name gives a salt, the structure may show the parent alone.

Key:
[1] = system: human polymorphonuclear elastase-induced lung hemorrhage; test: Inhibitory effects on human polymorphonuclear elastase-induced lung hemorrhage in hamster; type: in vivo, Syrian hamster; settings: oral, 60 min before intratracheal HSE 10 U/0.1 ml, blood in BALF; for inhibition at 500 mg/kg (%): 5 Syrian hamsters per group; for ED50: Homo sapiens, Syrian hamsters
Method: (2) Inhibitory effects on human polymorphonuclear elastase-induced lung hemorrhage in hamster
A test compound suspended in 0.5% Carboxymethylcellulose or 80% Polyethyleneglycol, 400 or 2% Tween 80 was administered orally to a group of 5 Syrian hamsters. At 60 min after the administration, 10 U/0.1 ml of HSE was injected intratracheally via surgically exposed trachea under pentobarbital anesthesia (60 mg/kg, i.p.) to induce lung injury. At 60 min after the injection, hamsters were bled to sacrifice and subjected to bronchoalveolar lavage with 2.5 ml of saline and recovered lavage solution (BALF). The recovered BALF (0.5 ml) was diluted by 4 times with 2% aqueous solution sodium carbonate and sonicated for 10 sec. The lavage fluid was further diluted by 2.5 times with 2% aqueous solution sodium carbonate and the amount of blood in BALF was calculated from absorbance at 414 nm using standard curve.

[2] = biological target: T1, human polymorphonuclear elastase (HSE) (Homo sapiens, UniProt P08246); test: Inhibitory effects on human polymorphonuclear elastase; type: biochemical; settings: substrate Meo-Suc-Ala-Ala-Pro-Val-pNA; HEPES pH 8.0; preincubation 37° C. 20 min, incubation 5 min
T1 sequence (P08246 30-267): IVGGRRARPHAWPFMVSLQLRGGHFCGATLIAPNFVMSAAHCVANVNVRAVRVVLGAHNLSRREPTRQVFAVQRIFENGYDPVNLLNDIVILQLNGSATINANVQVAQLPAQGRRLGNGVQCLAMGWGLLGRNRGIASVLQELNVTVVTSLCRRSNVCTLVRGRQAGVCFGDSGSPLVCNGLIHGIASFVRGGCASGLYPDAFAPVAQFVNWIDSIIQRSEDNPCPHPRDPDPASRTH
Method: (1) Inhibitory effects on human polymorphonuclear elastase
A mixture with 0.5 ml of 0.2 mM HEPES buffer (pH 8.0), 0.2 ml of 2.5M NaCl, 0.1 ml of 1% polyethyleneglycol 6000, 0.13 ml of distilled water, test compound dissolved in 0.01 ml of dimethylsulfoxide (DMSO) and 0.05 ml of 0.8 Unit/ml human polymorphonuclearelastase (HSE) was preincubated at 37° C. for 20 min. 5 mM of Meo-Suc-Ala-Ala-Pro-Val-pNA (DMSO solution, 0.01 ml) was then added to the above mixture and was incubated at 37° C. for 5 min. The reaction was terminated by 0.1 ml of 50% acetic acid and the p-nitroanilide (pNA) released was measured spectrophotometrically at […]. Percent inhibition of a compound was calculated by the following equation.
Inhibition (%)=1-{derlat OD(test-blank)/deltaOD(control-blank)}×100

Row | Compound | inhibition at 500 mg/kg (%) [1] | IC50 [2] | ED50 [1]
1 | CCC(C(=O)Oc1ccc(S(=O)(=O)n2c(C(=O)O)cc3cc(OC)c(OC)cc32)cc1C)c1ccc(N2CCCC2)cc1 (racemic) [2(42), 4-(2-carboxy-5,6-dimethoxyindol-1-ylsulfonyl)-2-methylphenyl 2RS-(4-(pyrrolidin-1-yl)phenyl)butanoic acid ester] | 67% | 13 nM | –
2 | CCC(C(=O)Oc1ccc(S(=O)(=O)N2c3ccccc3CC2C(=O)O)cc1)c1ccccc1OC (racemic) [2(62), 4-(2RS-carboxyindolin-1-ylsulfonyl)phenyl 2RS-(2-methoxyphenyl)butanoic acid ester] | – | 6.8 nM | –
3 | CCC(C(=O)Oc1ccc(S(=O)(=O)n2c(C(=O)O)cc3ccccc32)cc1C)c1ccc(C)cc1 (racemic) [2(69), 4-(2-carboxyindol-1-ylsulfonyl)-2-methylphenyl 2RS-(4-methylphenyl)butanoicacid ester] | 83% | 11 nM | –
4 | CCC(C(=O)Oc1ccc(S(=O)(=O)NC23CC4CC(C2)CC(C(=O)O)(C4)C3)cc1)c1ccc(N2CCCC2)cc1 (racemic) [2(111), 4-(N-3-carboxyadamantan-1-ylsulfamoyl)phenyl 2RS-(4-(pyrrolidin-1-yl)phenyl)butanoic acid ester] | – | 9.7 nM | –
5 | CCC(C(=O)Oc1ccc(S(=O)(=O)Nc2ccccc2C(=O)NCC(=O)O)cc1)c1ccc2c(c1)OCO2 (racemic) [2(120), 4-(N-2-(N'-carboxymethylcarbamoyl)phenylsulfamoyl)phenyl 2RS-(1,3-benzodioxol-5-yl)butanoic acid ester] | – | 23 nM | –
6 | CCC(C(=O)Oc1ccc(S(=O)(=O)Nc2ccccc2C(=O)NCC(=O)O)cc1)c1ccc(OC)c(OC)c1 (racemic) [2(157), 4-(N-2-(N'-carboxymethylcarbamoyl)phenylsulfamoyl)phenyl 2RS-(3,4-dimethoxyphenyl)butanoic acid ester] | – | 8 nM | –
7 | CCC(C(=O)Oc1ccc(S(=O)(=O)Nc2ccccc2C(=O)NCC(=O)O)cc1)c1ccc(C)cc1 (racemic) [2(173), 4-(N-2-(N'-carboxymethylcarbamoyl)phenylsulfamoyl)phenyl 2RS-(4-methylphenyl)butanoic acid ester] | – | 14 nM | –
8 | CCC(C(=O)Oc1ccc(S(=O)(=O)Nc2ccccc2C(=O)NCC(=O)O)cc1)c1ccc(N(C)C)cc1 (racemic) [2(197), 4-(N-2-(N'-carboxymethylcarbamoyl)phenylsulfamoyl)phenyl 2RS-(4-(N,N-dimethylamino)phenyl)butanoic acid ester.hydrochloride] | – | 10 nM | –
9 | CCC(C(=O)Oc1ccc(S(=O)(=O)N2CCOCC2)cc1)c1ccc(N2CCCC2)cc1 (racemic) [Example 1(16), 4-(morpholin-4-ylsulfonyl)phenyl 2RS-(4-(pyrrolidin-1-yl)phenyl)butanoic acid ester] | – | 17 nM | –
10 | CCOC(=O)C(CN1CCOCC1)NS(=O)(=O)c1ccc(OC(=O)C(CC)c2ccc(N3CCCC3)cc2)cc1 (racemic) [Example 1(40), 4-(N-1RS-(ethoxycarbonyl)-2-(morpholin-4-yl)ethylsulfamoyl)phenyl 2RS-(4-(pyrrolidin-1-yl)phenyl)butanoic acid ester] | – | 19 nM | –
11 | CCC(C(=O)Oc1ccc(S(=O)(=O)NCC(N)=O)cc1)c1ccc(N2CCCC2)cc1 (racemic) [Example 1(56), 4-(N-(carbamoylmethyl)sulfamoyl)phenyl 2RS-(4-(pyrrolidin-1-yl)phenyl)butanoic acid ester] | – | 14 nM | –
12 | CCC(C(=O)Oc1ccc(S(=O)(=O)NCC(O)CO)cc1C)c1ccc(C)cc1 (racemic) [Example 1(68), 4-(N-2RS,3-dihydroxypropylsulfamoyl)-2-methylphenyl 2RS-(4-methylphenyl)butanoic acid ester] | 51% | – | –
13 | CCC(C(=O)Oc1ccc(S(=O)(=O)NCCc2ccccn2)cc1)c1ccc(N2CCCC2)cc1 (racemic) [Example 1(78), 4-(N-2-(pyridin-2-yl)ethylsulfamoyl)phenyl 2RS-(4-(pyrrolidin-1-yl)phenyl)butanoic acid ester.2hydrochloride] | – | 8 nM | –
14 | CCC(C(=O)Oc1ccc(S(=O)(=O)NC2CN3CCC2CC3)cc1C)c1ccc(N2CCCC2)cc1 (racemic) [Example 1(90), 4-(N-(quinuclidin-3RS-yl)sulfamoyl)-2-methylphenyl 2RS-(4-(pyrrolidin-1-yl)phenyl)butanoic acid ester] | 65% | – | –
15 | CCC(C(=O)Oc1ccc(S(=O)(=O)N2CSC[C@H]2C(=O)O)cc1)c1ccc(N2CCCC2)cc1 (stereo partly drawn) [2(77), 4-(4S-carboxyperhydrothiazol-3-ylsulfonyl)phenyl 2RS-(4-(pyrrolidin-1-yl)phenyl)butanoic acid ester.hydrochloride] | – | 18 nM | –
16 | O=C(O)CNC(=O)c1ccccc1NS(=O)(=O)c1ccc(OC(=O)C2(c3ccc([N+](=O)[O-])cc3)CCC2)cc1 [2(179), 4-(N-2-(N'-carboxymethylcarbamoyl)phenylsulfamoyl)phenyl 1-(4-nitrophenyl)cyclobutanecarboxylic acid ester] | – | 49 nM | –
17 | CC[C@H](C(=O)Oc1ccc(S(=O)(=O)N2CCc3cc([N+](=O)[O-])ccc32)cc1C)c1ccc(N2CCCC2)cc1 [Example 1(130), 4-(5-nitroindolin-1-ylsulfonyl)-2-methylphenyl 2S-(4-(pyrrolidin-1-yl)phenyl)butanoic acid ester] | – | 22 nM | –
18 | CC[C@H](C(=O)Oc1ccc(S(=O)(=O)NCCN2CCOCC2)cc1C)c1ccc(N2CCCC2)cc1 [Example 1(139), 4-(2-(morpholin-4-yl)ethylaminosulfonyl)-2-methylphenyl 2S-(4-(pyrrolidin-1-yl)phenyl)butanoic acid ester.2hydrochloride] | – | 24 nM | 192 mg/kg
19 | CCC(C(=O)Oc1ccc(S(=O)(=O)N2CCC[C@H]2C(=O)O)cc1)c1ccc(N2CCCC2)cc1 (stereo partly drawn) [Example 2(1), 4-(2S-carboxypyrrolidin-1-ylsulfonyl)phenyl 2RS-(4-(pyrrolidin-1-yl)phenyl)butanoic acid ester.hydrochloride] | – | 12 nM | –
20 | CCc1cc(S(=O)(=O)N2CCNCC2)ccc1OC(=O)[C@@H](CC)c1ccc(N2CCCC2)cc1 [Example 2(274), 4-(piperazin-4-ylsulfonyl)-2-ethylphenyl 2S-(4-(pyrrolidin-1-yl)phenyl)butanoic acid ester.2hydrochloride] | – | 12 nM | 132 mg/kg
21 | CC[C@H](C(=O)Oc1ccc(S(=O)(=O)N2CCNCC2)cc1C)c1ccc(N2CCCC2)cc1 [Example 2(276), 4-(piperazin-4-ylsulfonyl)-2-methylphenyl 2S-(4-(pyrrolidin-1-yl)phenyl)butanoic acid ester.2hydrochloride] | – | 9.3 nM | 73 mg/kg
22 | CCC(C(=O)Oc1ccc(S(=O)(=O)N2CCC[C@H]2C(=O)O)cc1C)c1ccc(N2CCCC2)cc1 (stereo partly drawn) [Example 2, 4-(2S-carboxypyrrolidin-1-ylsulfonyl)-2-methylphenyl 2RS-(4-(pyrrolidin-1-yl)phenyl)butanoic acid ester.hydrochloride] | 81% | 55 nM | –
